In ChEMBL document CHEMBL1138653, “Screening of antimicrobial activity of diarylamines in the 2,3,5-trimethylbenzo[b]thiophene series: a structure-activity evaluation study” (2004):
In brackets after ≈: the same amount, converted by molar mass. Activity calls are given as the source filed them. No cut-off for these calls is given here.

How the values were obtained:
Candida albicans [1] = assay: Minimal inhibitory concentration against Candida albicans (CECT 1394) strain; Not active; type: functional, organism-based
Pseudomonas aeruginosa [2] = assay: Minimal inhibitory concentration against Pseudomonas aeruginosa (CECT 108) strain; Not active; type: functional, organism-based
Bacillus cereus [3] = assay: Minimal inhibitory concentration against Bacillus cereus (CECT 148) strain; Not active; type: functional, organism-based
Escherichia coli [4] = assay: Minimal inhibitory concentration against Escherichia coli (CECT 101) strain; Not active; type: functional, organism-based
Bacillus subtilis [5] = assay: Minimal inhibitory concentration against Bacillus subtilis (CECT 498) strain; Not active; type: functional, organism-based
Escherichia coli [6] = assay: Minimal inhibitory concentration against Escherichia coli; Not active; type: functional, organism-based
Bacillus cereus [7] = assay: Minimal inhibitory concentration against Bacillus cereus; type: functional
Bacillus subtilis [8] = assay: inhibition of Bacillus subtilis was measured by zone diameter; type: functional
Bacillus cereus [9] = assay: inhibition of Bacillus cereus was measured by zone diameter; type: functional
Bacillus subtilis [10] = assay: Minimal inhibitory concentration against Bacillus subtilis; type: functional
Candida albicans [11] = assay: Minimal inhibitory concentration against Candida albicans; Not active; type: functional, organism-based
Pseudomonas aeruginosa [12] = assay: Minimal inhibitory concentration against Pseudomonas aeruginosa; Not active; type: functional, organism-based
Candida albicans [13] = assay: inhibition of Candida albicans was measured by zone diameter; type: functional
Candida albicans [14] = assay: Minimal inhibitory concentration against Candida albicans; type: functional
Escherichia coli [15] = assay: Minimal inhibitory concentration against Escherichia coli; type: functional
Pseudomonas aeruginosa [16] = assay: inhibition of Pseudomonas aeruginosa was measured by zone diameter; type: functional
Pseudomonas aeruginosa [17] = assay: Minimal inhibitory concentration against Pseudomonas aeruginosa; type: functional
Escherichia coli [18] = assay: inhibition of Escherichia coli was measured by zone diameter; type: functional
Escherichia coli [19] = assay: Diameter of the inhibition zone of Escherichia coli upon administration of compound; type: functional

MIC (Candida albicans [1])	MIC (Pseudomonas aeruginosa [2])	MIC (Bacillus cereus [3])	MIC (Escherichia coli [4])	MIC (Bacillus subtilis [5])	MIC (Escherichia coli [6])	MIC (Bacillus cereus [7])	MIC (Bacillus subtilis [10])	MIC (Candida albicans [11])	MIC (Pseudomonas aeruginosa [12])	MIC (Candida albicans [14])	MIC (Escherichia coli [15])	MIC (Pseudomonas aeruginosa [17])	Compound	Inhibition (Bacillus subtilis [8])	Inhibition (Bacillus cereus [9])	Inhibition (Candida albicans [13])	Inhibition (Pseudomonas aeruginosa [16])	Inhibition (Escherichia coli [18])	Inhibition (Escherichia coli [19])
inactive	inactive	inactive	inactive	inactive									Cc1ccc2sc(C)c(C)c2c1						
					inactive	200 µg/mL (≈ 701 µM)	50 µg/mL (≈ 175 µM)						Cc1cc2c(C)c(C)sc2cc1Nc1ccccc1F	8 mm	9 mm				
					inactive	1000 µg/mL (≈ 3920 µM)	500 µg/mL (≈ 1960 µM)	inactive	inactive				Cc1cc2c(C)c(C)sc2cc1Br	18 mm	12 mm				
						3.13 µg/mL (≈ 9.69 µM)							O=C(N[C@H](CO)[C@H](O)c1ccc([N+](=O)[O-])cc1)C(Cl)Cl [CHLORAMPHENICOL]		8 mm				

Second part, the compound before the results:

Compound	MIC (Candida albicans [1])	MIC (Pseudomonas aeruginosa [2])	MIC (Bacillus cereus [3])	MIC (Escherichia coli [4])	MIC (Bacillus subtilis [5])	MIC (Escherichia coli [6])	MIC (Bacillus cereus [7])	MIC (Bacillus subtilis [10])	MIC (Candida albicans [11])	MIC (Pseudomonas aeruginosa [12])	MIC (Candida albicans [14])	MIC (Escherichia coli [15])	MIC (Pseudomonas aeruginosa [17])	Inhibition (Bacillus subtilis [8])	Inhibition (Bacillus cereus [9])	Inhibition (Candida albicans [13])	Inhibition (Pseudomonas aeruginosa [16])	Inhibition (Escherichia coli [18])	Inhibition (Escherichia coli [19])
Cc1cc2c(C)c(C)sc2cc1N						inactive	500 µg/mL (≈ 2610 µM)	500 µg/mL (≈ 2610 µM)		inactive	1000 µg/mL (≈ 5230 µM)			17 mm	10 mm	13 mm			
CC1(C)S[C@@H]2[C@H](NC(=O)[C@H](N)c3ccccc3)C(=O)N2[C@H]1C(=O)O [AMPICILLIN]							3.13 µg/mL (≈ 8.96 µM)	12.5 µg/mL (≈ 35.8 µM)				6.25 µg/mL (≈ 17.9 µM)	6.25 µg/mL (≈ 17.9 µM)	10 mm	13 mm		12 mm	15 mm	
Cc1cc2c(C)c(C)sc2cc1Nc1ccc(F)cc1						inactive	200 µg/mL (≈ 701 µM)	200 µg/mL (≈ 701 µM)		inactive				10 mm	12 mm				
COc1ccc(Nc2cc3sc(C)c(C)c3cc2C)cc1OC						inactive	200 µg/mL (≈ 611 µM)	200 µg/mL (≈ 611 µM)			25 µg/mL (≈ 76.3 µM)		1000 µg/mL (≈ 3050 µM)	10 mm	24 mm	8 mm	10 mm		
COc1ccc(Nc2cc3sc(C)c(C)c3cc2C)cc1							100 µg/mL (≈ 336 µM)	50 µg/mL (≈ 168 µM)			12.5 µg/mL (≈ 42 µM)	1000 µg/mL (≈ 3360 µM)	1000 µg/mL (≈ 3360 µM)	19 mm	4 mm	6 mm	8 mm		4 mm
Cc1cc2c(C)c(C)sc2cc1Nc1ccccc1							200 µg/mL (≈ 748 µM)	200 µg/mL (≈ 748 µM)				200 µg/mL (≈ 748 µM)	200 µg/mL (≈ 748 µM)	8 mm	18 mm		16 mm		4 mm
